The term IC50 denotes the concentration at which inhibition is half-maximal. A higher IC50 goes with a need for much substance.

In assay [1] the target is T1, FAAH (Homo sapiens, UniProt O00519).
T1 sequence (O00519 1-579): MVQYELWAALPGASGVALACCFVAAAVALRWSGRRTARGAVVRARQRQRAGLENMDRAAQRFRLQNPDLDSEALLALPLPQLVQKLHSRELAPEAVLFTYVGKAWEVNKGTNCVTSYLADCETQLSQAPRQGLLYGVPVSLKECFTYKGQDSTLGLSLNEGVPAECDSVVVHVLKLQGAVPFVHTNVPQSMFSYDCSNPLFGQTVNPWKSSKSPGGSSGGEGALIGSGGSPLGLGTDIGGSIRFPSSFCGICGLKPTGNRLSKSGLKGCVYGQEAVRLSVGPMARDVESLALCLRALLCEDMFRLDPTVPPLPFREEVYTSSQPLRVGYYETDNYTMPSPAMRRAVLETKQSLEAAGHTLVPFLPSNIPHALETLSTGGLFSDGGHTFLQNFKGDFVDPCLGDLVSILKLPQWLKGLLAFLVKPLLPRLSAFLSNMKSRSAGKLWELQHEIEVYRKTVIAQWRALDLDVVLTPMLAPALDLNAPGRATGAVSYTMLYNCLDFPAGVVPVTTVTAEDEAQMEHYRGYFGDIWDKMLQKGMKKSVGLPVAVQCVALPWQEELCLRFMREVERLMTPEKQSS
Briefly: In vitro competitive activity-based protein profiling, FAAH, human. Conditions: for inhibition at 1 µM: read-out: FAAH % inh. 1 μM (human).

For assay [2], the target named is T2, MAGL (Mus musculus, UniProt O35678).
T2 sequence (O35678 1-303): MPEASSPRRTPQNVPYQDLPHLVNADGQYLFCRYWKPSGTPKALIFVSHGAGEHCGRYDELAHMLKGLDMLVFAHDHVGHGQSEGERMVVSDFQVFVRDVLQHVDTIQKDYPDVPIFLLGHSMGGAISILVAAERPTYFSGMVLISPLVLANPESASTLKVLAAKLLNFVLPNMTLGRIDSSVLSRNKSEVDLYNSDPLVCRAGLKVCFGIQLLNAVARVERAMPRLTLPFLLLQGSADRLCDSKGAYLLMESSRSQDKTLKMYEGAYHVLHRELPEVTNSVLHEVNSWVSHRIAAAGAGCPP
Briefly: In vitro competitive activity-based protein profiling, MAGL, mouse. Conditions: read-out: MAGL % inh. 1 μM (mouse).

For assay [3], the target named is T3, FAAH (Mus musculus, UniProt O08914).
T3 sequence (O08914 1-579): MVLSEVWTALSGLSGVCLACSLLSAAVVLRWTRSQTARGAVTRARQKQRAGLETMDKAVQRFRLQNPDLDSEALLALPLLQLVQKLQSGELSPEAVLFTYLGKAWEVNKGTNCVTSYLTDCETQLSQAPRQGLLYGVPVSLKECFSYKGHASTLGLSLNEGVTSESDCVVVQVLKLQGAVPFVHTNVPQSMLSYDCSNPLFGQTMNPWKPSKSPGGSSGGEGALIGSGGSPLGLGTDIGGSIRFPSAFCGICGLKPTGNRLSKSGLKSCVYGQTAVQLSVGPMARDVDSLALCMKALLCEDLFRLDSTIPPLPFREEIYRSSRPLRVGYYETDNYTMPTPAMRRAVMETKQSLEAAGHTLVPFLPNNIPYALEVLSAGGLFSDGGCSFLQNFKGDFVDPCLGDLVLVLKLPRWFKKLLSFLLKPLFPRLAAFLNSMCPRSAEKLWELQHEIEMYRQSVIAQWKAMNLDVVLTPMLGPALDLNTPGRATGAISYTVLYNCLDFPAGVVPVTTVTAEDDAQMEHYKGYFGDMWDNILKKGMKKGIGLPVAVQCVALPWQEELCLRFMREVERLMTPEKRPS
The assay can be described thus: In vitro competitive activity-based protein profiling, FAAH, mouse. The following applies: read-out: FAAH % inh. 1 μM (mouse).

Assay [4] deals with T4, MAGL (Homo sapiens, UniProt Q99685).
T4 sequence (Q99685 1-303): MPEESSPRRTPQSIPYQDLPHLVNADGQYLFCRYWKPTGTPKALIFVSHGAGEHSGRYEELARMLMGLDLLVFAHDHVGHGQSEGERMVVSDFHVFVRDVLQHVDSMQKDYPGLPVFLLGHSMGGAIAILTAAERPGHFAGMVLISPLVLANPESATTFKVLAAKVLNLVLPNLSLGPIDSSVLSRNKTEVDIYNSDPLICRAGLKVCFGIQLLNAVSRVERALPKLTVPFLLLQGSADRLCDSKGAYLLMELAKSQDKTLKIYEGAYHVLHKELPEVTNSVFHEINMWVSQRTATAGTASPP
Briefly: In vitro competitive activity-based protein profiling, MAGL, human. Conditions: for inhibition at 1 µM: read-out: MAGL % inh. 1 μM (human).

Assay [5] concerns the target T3, FAAH. The assay can be described thus: Mouse brain proteomes from inhibitor treated mice (oral gavage, sacrificed 4 h after administration), FAAH. The class given is in vivo. Also on record: mouse brain membrane fraction for mouse assays; from tissue; host or cells: mouse brain (membrane fraction in vitro; brain proteomes of treated C57Bl/6J mice in vivo). The following applies: 5 mg/kg oral gavage, brain proteome 4 h after administration, read-out: FAAH % inh. 5 mg/kg (mouse).

In assay [6] the target is T2, MAGL. The assay can be described thus: Mouse brain proteomes from inhibitor treated mice (oral gavage, sacrificed 4 h after administration). The class given is in vivo. Also on record: mouse brain membrane fraction for mouse assays; from tissue; host or cells: mouse brain (membrane fraction in vitro; brain proteomes of treated C57Bl/6J mice in vivo). The following applies: 5 mg/kg oral gavage, brain proteome 4 h after administration, read-out: MAGL % inh. 5 mg/kg (mouse).

As to `O=C(O)c1nn(C(=O)N2CCN(Cc3cccc(Oc4ccc(Cl)cc4)c3)CC2)cc1Cl` [Example 132, 4-chloro-1-(4-(3-(4-chlorophenoxy)benzyl)piperazine-1-carbonyl)-1H-pyrazole-3-carboxylic acid], the inhibition at 1 µM at FAAH [1], on MAGL [2], at FAAH [3] and on MAGL [4] was > 75% throughout. The inhibition at 5 mg/kg on FAAH [5] and on MAGL [6] was 0 to 25% throughout.

In the case of `NC(=O)C1CCN(c2cc(C(F)(F)F)ccc2CN2CCN(C(=O)n3ccc(C(=O)O)n3)CC2)CC1` [Example 113, 1-(4-(2-(4-carbamoylpiperidin-1-yl)-4-(trifluoromethyl)benzyl)piperazine-1-carbonyl)-1H-pyrazole-3-carboxylic acid], the inhibition at 1 µM at FAAH [1] is 0 to 25%; on MAGL [2], > 75%; on FAAH [3] it was 0 to 25%; at MAGL [4], > 75%. Besides, the inhibition at 5 mg/kg at FAAH [5] and at MAGL [6] was 0 to 25% each time.

Regarding `O=C(O)c1ccn(C(=O)N2CCN(Cc3ccc(C(F)(F)F)cc3N3CC4COCC4C3)CC2)n1` (centres unmarked) [Example 106, 1-(4-(2-(tetrahydro-1H-furo[3,4-c]pyrrol-5(3H)-yl)-4-(trifluoromethyl)benzyl)piperazine-1-carbonyl)-1H-pyrazole-3-carboxylic acid], the inhibition at 1 µM at FAAH [1] was 0 to 25%; at MAGL [2], > 75%; at FAAH [3] it was 0 to 25%; on MAGL [4] it was > 75%. Also, the inhibition at 5 mg/kg at FAAH [5] and on MAGL [6] was 0 to 25% throughout.

Take `Cc1c(CO[C@H]2C[C@@H]3CN(C(=O)n4ccc(C(=O)O)n4)C[C@@H]3C2)cccc1C(F)(F)F` [Example 159, 1-(trans-5-((2-methyl-3-(trifluoromethyl)benzyl)oxy)octa-hydrocyclopenta[c]pyrrole-2-carbonyl)-1H-pyrazole-3-carboxylic acid]: on FAAH [1], the IC50 lay in the range of 100 to 1000 nM. Also, the inhibition at 1 µM at FAAH [1], at MAGL [2], on FAAH [3] and on MAGL [4] was > 75% throughout. Moreover, the inhibition at 5 mg/kg on FAAH [5] and at MAGL [6] was 0 to 25% throughout.

Consider `O=C(O)c1ccn(C(=O)N2CC3CN(Cc4cccc(Oc5ccc(Cl)cc5)c4)CC3C2)n1` (centres unmarked) [Example 116, 1-(5-(3-(4-chlorophenoxy)benzyl)octahydro-pyrrolo[3,4-c]pyrrole-2-carbonyl)-1H-pyrazole-3-carboxylic acid], for which the IC50 at FAAH [1] and at MAGL [4] was 100 to 1000 nM in each case. Further, the inhibition at 1 µM at FAAH [1] was > 75%; at MAGL [2], > 75%; at FAAH [3], 0 to 25%; at MAGL [4], > 75%. Also, the inhibition at 5 mg/kg at FAAH [5] and at MAGL [6] was 0 to 25% in each case.

On to `O=C(O)c1ccn(C(=O)N2CCN(Cc3ccc(C(F)(F)F)c(N4C5CCC4COC5)c3)CC2)n1` [Example 40, 1-(4-(3-(3-oxa-8-azabicyclo[3.2.1]octan-8-yl)-4-(trifluoromethyl)benzyl)piperazine-1-carbonyl)-1H-pyrazole-3-carboxylic acid], for which the inhibition at 1 µM was 0 to 25% at FAAH [1], > 75% on MAGL [2], 0 to 25% at FAAH [3] and > 75% on MAGL [4]. Besides, the inhibition at 5 mg/kg at FAAH [5] and at MAGL [6] was 0 to 25% in each case.

With `O=C(O)c1ccn(C(=O)N2CCC3(CCCN3Cc3cc(N4CCCC4)cc(C(F)(F)F)c3)CC2)n1` [Example 88, 1-(1-(3-(pyrrolidin-1-yl)-5-(trifluoromethyl)benzyl)-1,8-diazaspiro[4.5]decane-8-carbonyl)-1 1H-pyrazole-3-carboxylic acid], the inhibition at 1 µM on FAAH [1] is 0 to 25%; at MAGL [2] it was > 75%; on FAAH [3], 0 to 25%; at MAGL [4] it was > 75%. For the same molecule, the inhibition at 5 mg/kg at FAAH [5] and on MAGL [6] was 0 to 25% each time.

Regarding `O=C(O)c1ccn(C(=O)N2CCN(Cc3cc4cc(Cl)ccc4s3)CC2)n1` [Example 187, 1-(4-((5-chlorobenzo[b]thio-phen-2-yl)methyl)piperazine-1-carbonyl)-1H-pyrazole-3-carboxylic acid], the inhibition at 1 µM at FAAH [1] was 25 to 50%; at MAGL [2], > 75%; at FAAH [3], 0 to 25%; at MAGL [4], > 75%. Moreover, the inhibition at 5 mg/kg on FAAH [5] and on MAGL [6] was 0 to 25% throughout.

Turning to `O=C(O)c1ccn(C(=O)N2CCC3(CCN(Cc4cccc(Oc5ccc(Cl)cc5)c4)C3)CC2)n1` [Example 210, 1-(2-(3-(4-chlorophenoxy)benzyl)-2,8-diazaspiro[4.5]decane-8-carbonyl)-1H-pyrazole-3-carboxylic acid], the concentration for half-maximal inhibition (IC50) on FAAH [1] lay within 1000 to 10000 nM; at MAGL [4], 100 to 1000 nM. The inhibition at 1 µM on FAAH [1], at MAGL [2], at FAAH [3] and on MAGL [4] was > 75% throughout. Further, the inhibition at 5 mg/kg at FAAH [5] and at MAGL [6] was 0 to 25% in each case.

Regarding `O=C(O)c1ccn(C(=O)N2CCN(Cc3ccc(Cl)cc3N3CC4COCC4C3)CC2)n1` (centres unmarked) [Example 111, 1-(4-(4-chloro-2-(tetrahydro-1H-furo[3,4-c]pyrrol-5(3H)-yl)benzyl)piperazine-1-carbonyl)-1H-pyrazole-3-carboxylic acid], the inhibition at 1 µM was 0 to 25% on FAAH [1], > 75% at MAGL [2], 0 to 25% at FAAH [3] and > 75% at MAGL [4]. For the same molecule, the inhibition at 5 mg/kg on FAAH [5] and on MAGL [6] was 0 to 25% throughout.

For `O=C(O)c1ccn(C(=O)N2CCN(Cc3ccc(C(F)(F)F)cc3N3CCC(O)CC3)CC2)n1` [Example 120, 1-(4-(2-(4-hydroxypiperidin-1-yl)-4-(trifluoromethyl)benzyl)piperazine-1-carbonyl)-1H-pyrazole-3-carboxylic acid], the inhibition at 1 µM is 0 to 25% on FAAH [1], > 75% on MAGL [2], 0 to 25% at FAAH [3] and > 75% at MAGL [4]. In addition, the inhibition at 5 mg/kg on FAAH [5] and on MAGL [6] was 0 to 25% each time.
